Values after ≈ are worked out from the molar mass of the structure shown. Where two headings read alike, the source gives them in different places.
Key:
[1] = system: Serr. mar. 017; test: MIC in brain heart infusion (BHI) broth; assay type: cell-based
Excerpt: (§1) Generally twelve 2 fold dilutions of the test compound are employed, with initial concentration of the test drug being in the range of 50 to 200 mcg./ml. The susceptibility (MIC) of the test organism is accepted as the lowest concentration of compound capable of producing complete inhibition of growth as judged by the naked eye. A comparison of the activity of 4"-epi-9-deoxo-9a-methyl-9a-aza-9a-homoerythromycin A (IV) with that of an erythromycin A control is shown in replicate in the Table I.

[2] = system: Strep. pyog. 203; test: MIC in brain heart infusion (BHI) broth; assay type: cell-based
Excerpt: as §1

[3] = system: Strep. pneumo. 012; test: MIC in brain heart infusion (BHI) broth; assay type: cell-based
Excerpt: as §1

[4] = system: Kleb. pn. 031; test: MIC in brain heart infusion (BHI) broth; assay type: cell-based
Excerpt: as §1

[5] = system: Prov. strua. 013; test: MIC in brain heart infusion (BHI) broth; assay type: cell-based
Excerpt: as §1

[6] = system: Staph. aur. 005; test: MIC in brain heart infusion (BHI) broth; assay type: cell-based
Excerpt: as §1

[7] = system: Ent. cloac. 009; test: MIC in brain heart infusion (BHI) broth; assay type: cell-based
Excerpt: as §1

[8] = system: Staph. aur. 052; test: MIC in brain heart infusion (BHI) broth; assay type: cell-based
Excerpt: as §1

[9] = system: Neiss. sic. 000; test: MIC in brain heart infusion (BHI) broth; assay type: cell-based
Excerpt: as §1

[10] = system: Staph. epi 111; test: MIC in brain heart infusion (BHI) broth; assay type: cell-based
Excerpt: as §1

[11] = system: Staph. aur. 400; test: MIC in brain heart infusion (BHI) broth; assay type: cell-based
Excerpt: as §1

[12] = system: Ent. aerog. 040; test: MIC in brain heart infusion (BHI) broth; assay type: cell-based
Excerpt: as §1

[13] = system: E. Coli 125; test: MIC in brain heart infusion (BHI) broth; assay type: cell-based; conditions: Escherichia coli
Excerpt: as §1

[14] = system: Kleb. oxy. 024; test: MIC in brain heart infusion (BHI) broth; assay type: cell-based
Excerpt: as §1

[15] = system: Strep. faec. 006; test: MIC in brain heart infusion (BHI) broth; assay type: cell-based
Excerpt: as §1

[16] = system: E. Coli 129; test: MIC in brain heart infusion (BHI) broth; assay type: cell-based; conditions: Escherichia coli
Excerpt: as §1

[17] = system: E. Coli 266; test: MIC in brain heart infusion (BHI) broth; assay type: cell-based; conditions: Escherichia coli
Excerpt: as §1

[18] = system: Kleb. pn. 009; test: MIC in brain heart infusion (BHI) broth; assay type: cell-based
Excerpt: as §1

[19] = system: Past. mult. 001; test: MIC in brain heart infusion (BHI) broth; assay type: cell-based; conditions: BHI broth, read-out: MIC
Excerpt: as §1

[20] = system: E. Coli 470; test: MIC in brain heart infusion (BHI) broth; assay type: cell-based; conditions: Escherichia coli, BHI broth, read-out: MIC
Excerpt: as §1

[21] = system: H. influ. 081; test: MIC in brain heart infusion (BHI) broth; assay type: cell-based, Hemophilus influenzae; conditions: Haemophilus influenzae
Excerpt: as §1

[22] = system: H. influ. 042; test: MIC in brain heart infusion (BHI) broth; assay type: cell-based, Hemophilus influenzae; conditions: Haemophilus influenzae
Excerpt: as §1

[23] = system: H. influ. 078; test: MIC in brain heart infusion (BHI) broth; assay type: cell-based, Hemophilus influenzae; conditions: Haemophilus influenzae
Excerpt: as §1

[24] = system: H. influ. 036; test: MIC in brain heart infusion (BHI) broth; assay type: cell-based, Hemophilus influenzae; conditions: Haemophilus influenzae
Excerpt: as §1

[25] = system: H. influ. 073; test: MIC in brain heart infusion (BHI) broth; assay type: cell-based, Hemophilus influenzae; conditions: Haemophilus influenzae
Excerpt: as §1

[26] = system: H. influ. 051; test: MIC in brain heart infusion (BHI) broth; assay type: cell-based, Hemophilus influenzae; conditions: Haemophilus influenzae
Excerpt: as §1

[27] = system: H. influ. 012; test: MIC in brain heart infusion (BHI) broth; assay type: cell-based, Hemophilus influenzae; conditions: Haemophilus influenzae
Excerpt: as §1

[28] = system: H. influ. 038; test: MIC in brain heart infusion (BHI) broth; assay type: cell-based, Hemophilus influenzae; conditions: Haemophilus influenzae
Excerpt: as §1

[29] = system: erythromycin A susceptible organisms and Hemophilus influenzae; test: spectrum of antibacterial activity; assay type: cell-based
Excerpt: as §1

[30] = microbiological (bioassay) determination of serum levels in rats
Method: Additionally, compound (IV) is tested in vivo by the well-known mouse protection test, or by a microbiological (bioassay) determination of serum levels in a variety of mammals (e.g., mouse, rat, dog).

[31] = oral absorption and half-life in vivo
[32] = 24 h, Day 1, BHI broth, read-out: MIC
[33] = 48 h, Day 2, BHI broth, read-out: MIC

CC[C@H]1OC(=O)[C@H](C)[C@@H](O[C@H]2C[C@@](C)(OC)[C@H](O)[C@H](C)O2)[C@H](C)[C@@H](O[C@@H]2O[C@H](C)C[C@H](N(C)C)[C@H]2O)[C@](C)(O)C[C@@H](C)CN(C)[C@H](C)[C@@H](O)[C@]1(C)O [Compound (IV), 4"-epi-9-deoxo-9a-methyl-9a-aza-9a-homoerythromycin A]
MIC ([1]; 24 h, Day 1): 50 µg/mL (≈ 66.8 µM) | MIC ([1]; 48 h, Day 2): 50 µg/mL (≈ 66.8 µM) | MIC ([2]; 24 h, Day 1): 0.025 µg/mL (≈ 0.0334 µM) | MIC ([2]; 48 h, Day 2): 0.025 µg/mL (≈ 0.0334 µM) | MIC ([3]; 24 h, Day 1): 0.025 µg/mL (≈ 0.0334 µM) | MIC ([3]; 48 h, Day 2): 0.025 µg/mL (≈ 0.0334 µM) | MIC ([4]; 24 h, Day 1): 12.5 µg/mL (≈ 16.7 µM) | MIC ([4]; 48 h, Day 2): 12.5 µg/mL (≈ 16.7 µM) | MIC ([5]; 24 h, Day 1): 50 µg/mL (≈ 66.8 µM) | MIC ([5]; 48 h, Day 2): 50 µg/mL (≈ 66.8 µM) | MIC [6, 32]: 0.2 µg/mL (≈ 0.267 µM) | MIC ([6]; 48 h): 0.39 µg/mL (≈ 0.521 µM) | MIC ([7]; 24 h, Day 1): 25 µg/mL (≈ 33.4 µM) | MIC ([7]; 48 h, Day 2): 25 µg/mL (≈ 33.4 µM) | MIC [8, 32]: 0.2 µg/mL (≈ 0.267 µM) | MIC ([8]; 48 h): 0.39 µg/mL (≈ 0.521 µM) | MIC [9, 32]: 0.2 µg/mL (≈ 0.267 µM) | MIC ([9]; 48 h): 0.39 µg/mL (≈ 0.521 µM) | MIC ([10]; 24 h, Day 1): 0.1 µg/mL (≈ 0.134 µM) | MIC ([10]; 48 h, Day 2): 0.2 µg/mL (≈ 0.267 µM) | MIC ([11]; 24 h): 3.12 µg/mL (≈ 4.17 µM) | MIC [11, 33]: 12.5 µg/mL (≈ 16.7 µM) | MIC ([12]; 24 h, Day 1): 12.5 µg/mL (≈ 16.7 µM) | MIC ([12]; 48 h, Day 2): 12.5 µg/mL (≈ 16.7 µM) | MIC ([13]; 24 h): 6.25 µg/mL (≈ 8.34 µM) | MIC ([13]; 48 h): 6.25 µg/mL (≈ 8.34 µM) | MIC ([14]; 24 h, Day 1): 12.5 µg/mL (≈ 16.7 µM) | MIC ([14]; 48 h, Day 2): 12.5 µg/mL (≈ 16.7 µM) | MIC ([15]; 24 h): 1.56 µg/mL (≈ 2.08 µM) | MIC [15, 33]: 0.78 µg/mL (≈ 1.04 µM) | MIC ([16]; 24 h): 1.56 µg/mL (≈ 2.08 µM) | MIC ([16]; 48 h): 6.25 µg/mL (≈ 8.34 µM) | MIC ([17]; 24 h): 3.12 µg/mL (≈ 4.17 µM) | MIC ([17]; 48 h): 6.25 µg/mL (≈ 8.34 µM) | MIC ([18]; 24 h, Day 1): 12.5 µg/mL (≈ 16.7 µM) | MIC ([18]; 48 h, Day 2): 12.5 µg/mL (≈ 16.7 µM) | MIC ([19]; 24 h, Day 1): 0.1 µg/mL (≈ 0.134 µM) | MIC ([19]; 48 h, Day 2): 0.1 µg/mL (≈ 0.134 µM) | MIC ([20]; 24 h, Day 1): 0.78 µg/mL (≈ 1.04 µM) | MIC ([20]; 48 h, Day 2): 0.78 µg/mL (≈ 1.04 µM) | MIC ([21]; 24 h): 0.39 µg/mL (≈ 0.521 µM) | MIC [21, 33]: 0.78 µg/mL (≈ 1.04 µM) | MIC ([22]; 24 h, Day 1): 0.39 µg/mL (≈ 0.521 µM) | MIC ([22]; 48 h, Day 2): 0.39 µg/mL (≈ 0.521 µM) | MIC ([23]; 24 h, Day 1): 0.39 µg/mL (≈ 0.521 µM) | MIC ([23]; 48 h, Day 2): 0.39 µg/mL (≈ 0.521 µM) | MIC ([24]; 24 h, Day 1): 0.39 µg/mL (≈ 0.521 µM) | MIC ([24]; 48 h, Day 2): 0.39 µg/mL (≈ 0.521 µM) | MIC ([25]; 24 h): 0.39 µg/mL (≈ 0.521 µM) | MIC [25, 33]: 0.78 µg/mL (≈ 1.04 µM) | MIC ([26]; 24 h): 0.39 µg/mL (≈ 0.521 µM) | MIC [26, 33]: 0.78 µg/mL (≈ 1.04 µM) | MIC ([27]; 24 h, Day 1): 0.39 µg/mL (≈ 0.521 µM) | MIC ([27]; 48 h, Day 2): 0.39 µg/mL (≈ 0.521 µM) | MIC ([28]; 24 h): 0.39 µg/mL (≈ 0.521 µM) | MIC [28, 33]: 0.78 µg/mL (≈ 1.04 µM) | spectrum of antibacterial activity [29]: relatively broad spectrum of antibacterial activity which includes erythromycin A susceptible organisms and, in addition, fully incorporates the major respiratory pathogen Hemophilus influenzae | absorption after oral dosage [30]: exceptionally well absorbed | serum levels ([30]; oral): exceptionally high and long lasting serum levels | half-life in vivo ([31]; in vivo): extraordinarily long half-life in vivo | oral absorption ([31]; oral): high oral absorption

From patent US4526889A, “Epimeric azahomoerythromycin A derivative, intermediates and method of use” (Pfizer Inc., priority 1984, dated 1985)
